US5912352A, “Intermediates for the preparation of peptide analogues” (Novartis Finance Corporation, priority 1996, dated 1999)

Columns and labels:
HIV-1-protease = molecular target: T1, HIV-1-protease (Human immunodeficiency virus type 1 group M subtype B, UniProt P04585); assay: Inhibition of the proteolytic activity of HIV-1-protease (icosapeptide substrate, HPLC); format: biochemical; details: icosapeptide RRSNQVSQNYPIVQNIQGRR 122 μM, 20 mM MES buffer pH 6.0, one hour at 37° C.; read-out: IC50 (concentration at which half the maximum inhibition of HIV-1-protease is found)
T1 construct: made in house
Method: In that procedure the inhibition of the action of HIV-1- protease (preparation: see S. Billich et al., J. Biol. Chem. 263 (34), 17905-17908 (1990)) is measured in the presence of the icosapeptide […] (a synthetic substrate of HIV-1-protease, prepared by peptide synthesis in accordance with known procedures (see J. Schneider et al., Cell 54, 363-368 (1988)), which contains as substrate analogue one of the cleavage sites of the gag-precursor protein (natural substrate of HIV-1-protease). That substrate and its cleavage products are analysed by high performance liquid chromatography (HPLC).
The test compound is dissolved in dimethyl sulfoxide. The enzymatic test is carried out by adding suitable dilutions of the inhibitor in 20 mM β-morpholinoethanesulfonic acid (MES) buffer pH 6.0 to the test mixture. That mixture consists of the above-mentioned icosapeptide (122 μM) in 20 mM MES buffer pH 6.0. 100 μl are used per test batch. The reaction is started by the addition of […] of HIV-1-protease solution and is stopped after one hour's incubation at 37° C. by the addition of 10 μl of 0.3M HClO4. After centrifugation of the sample at 10000×g for 5 minutes, 20 μl of the resulting supernatant are applied to a 125×4.6 mm Nucleosil® Cl8-5 μ HPLC column (reversed phase material supplied by Macherey & Nagel, Duren, FRG, based on silica gel that has been charged with C18 alkyl chains). The uncleaved icosapeptide and its cleavage products are eluted from the column by means of the following gradient: 100% eluant 1→50% eluant 1+50% eluant 2 (eluant 1:10% acetonitrile, 90% H2 O, 0.1% trifluoroacetic acid (TFA); eluant 2:75% acetonitrile, 25% H2 O, 0.08% TFA) over 15 minutes, throughflow rate 1 ml/min. The quantification of the eluted peptide fragments is carried out by measuring the peak height of the cleavage product at 215 nm.

HIV-1/MN = assay: Inhibition of virus replication in MT-2 cells infected with HIV-1/MN (reverse transcriptase activity in supernatant); format: cell-based; details: 4 days' incubation
Text: In a further test it can be shown that the title compound from Example 5 protects cells normally infected by HIV from such an infection or at least slows down such an infection. For this test, MT-2 cells infected with HIV-1/MN are used. MT-2 cells have been transformed with HTLV-1 (a virus causing leukaemia) and are a continuous producer thereof; they are therefore especially sensitive to the cytopathogenic effect of HIV. MT-2 cells can be obtained via the AIDS Research and Reference Reagent Program, Division of AIDS, NIAID, NIH from Dr. Douglas Richman (see J. Biol. Chem. 263, 5870-5875 (1988) and also Science 229, 563-566 (1985)). The MT-2 cells are cultured in RPMI 1640 medium (Gibco, Scotland; RPMI comprises an amino acid mixture without glutamine) supplemented with 10% heat-inactivated foetal calf serum, glutamine and standard antibiotics. […] The titre of the HIV-1/MN virus stock solution (determined by titration onto MT-2 cells) is 4.2×10^5 TClD50/ml (TClD50=Tissue Culture Infective Dose=dose that infects 50% of the MT-2 cells). […] Prior to the test, 0.1% (v/v) [alpha-^32 P]dTTP is added to aliquots of the solution in order to establish a radioactivity of 10 μCl/ml.
After mixing, the plate is incubated for 2 h at 37° C. […] The radioactivity on the filters is measured in a Matrix Packard 96-well counter (Packard, Zurich, Switzerland). […]

[1] = Plasma levels in mice after oral administration; format: in vivo, female BALB/c mice; details: 120 mg/kg
Method: In order to determine its pharmacokinetics, the title compound from Example 5 is dissolved in dimethyl sulfoxide (DMSO) in a concentration of 240 mg/ml. The resulting solution is diluted 1:20 (v/v) with 20% (w/v) aqueous hydroxypropyl-β-cyclodextrin solution in order to obtain a concentration of the test compound of 12 mg/ml. The resulting solution is treated briefly with ultrasound and administered orally to female BALB/c mice (Bomholtgarden, Copenhagen, Denmark) by artificial tube feeding at a dose of 120 mg/kg. At fixed times (for example 30, 60, 90, 120 min) after administration, mice are sacrificed and the […] stored in heparinised test tubes. The blood is centrifuged (12000×g, 5 min) and the plasma removed. […] The precipitate is pelleted by centrifugation (12000×g, 5 min), and the concentration of the test compound is determined by reversed phase high performance liquid chromatography (HPLC).
The HPLC analysis of the samples obtained in accordance with the method described above is carried out on a 125×4.6 mm Nucleosil® C18 column (reversed phase material supplied by Macherey & Nagel, Duren, Germany, based on silica gel derivatised with hydrocarbon radicals having 18 carbon atoms), using a 2 cm long preliminary column containing the same column material. […] The test compound is detected by UV absorption measurement at 255 nm. […]

Compound	IC50 (HIV-1-protease) [µM]	ED90 (concentration that reduces the RT activity by 90%; 90% inhibition of virus replication) (HIV-1/MN) [µM]	plasma level ([1]; 30 min after administration) [µM]	plasma level ([1]; 90 min after administration) [µM]
COC(=O)N[C@H](C(=O)N[C@@H](Cc1ccccc1)[C@@H](O)CN(Cc1ccc(-c2nnn(C)n2)cc1)NC(=O)[C@@H](NC(=O)OC)C(C)(C)C)C(C)(C)C [1-[4-(2-methyl-2H-tetrazol-5-yl)-phenyl]-4(S)-hydroxy-5(S)-2,5-bis[N-(N-methoxycarbonyl-(L)-tert-leucyl)amino]-6-phenyl-2-axahexane]	0.051			
COC(=O)N[C@H](C(=O)N[C@@H](Cc1ccccc1)[C@@H](O)CN(Cc1ccc(-c2nccs2)cc1)NC(=O)[C@@H](NC(=O)OC)C(C)(C)C)C(C)(C)C [1-[4-(thiazol-2-yl)-phenyl]-4(S)-hydroxy-5(S)-2,5-bis[N-(N-methoxycarbonyl-(L)-tert-leucyl)amino]-6-phenyl-2-azahexane]	0.033			
COC(=O)N[C@H](C(=O)N[C@@H](Cc1ccccc1)[C@@H](O)CN(Cc1ccc(-c2ccccn2)cc1)NC(=O)[C@@H](NC(=O)OC)C(C)(C)C)C(C)(C)C [Example 5, 1-[4-(Pyridin-2-yl)-phenyl]-4(S)-hydroxy-5(S)-2,5-bis[N-(N-methoxycarbonyl-(L)-tert-leucyl)-amino]-6-phenyl-2-azahexane]	0.026	0.003	21.83	31.76
